# pIC50: −log10 of the molar value. Like-named read-outs stand apart in the source and are kept apart here.
# Assays:
# KDR kinase (790-1356 AA) = KDR kinase (790-1356 AA) (Homo sapiens (Human), UniProt P35968); assay: Inhibitory activity at KDR kinase (Lance Ultra Ulight-TK assay); format: biochemical
# Summary of the method: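 Kinase (20 nM final) and compound were premixed 20 min at 30 °C, then phosphorylation ran 2 h at 30 °C with ATP at 90 μM and Ulight-TK substrate at 50 μM, pH 7.5, Mg2+ and Mn2+ present.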
# B-Raf kinase = B-Raf kinase (Homo sapiens (Human), UniProt P15056); assay: Inhibitory activity at B-Raf kinase (ADP-GLO assay); format: biochemical
# Sequence of B-Raf kinase (P15056 416-766): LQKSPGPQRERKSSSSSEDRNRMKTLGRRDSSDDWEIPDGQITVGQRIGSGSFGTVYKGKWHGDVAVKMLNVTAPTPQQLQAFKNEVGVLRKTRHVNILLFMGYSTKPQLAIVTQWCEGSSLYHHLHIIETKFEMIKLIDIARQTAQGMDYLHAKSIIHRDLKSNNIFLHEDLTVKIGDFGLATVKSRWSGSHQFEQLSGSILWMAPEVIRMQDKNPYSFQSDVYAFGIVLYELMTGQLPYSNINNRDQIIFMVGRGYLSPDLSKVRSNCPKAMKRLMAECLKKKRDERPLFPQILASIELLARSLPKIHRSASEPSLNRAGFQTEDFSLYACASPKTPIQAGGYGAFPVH
# Procedure: Inhibitory Activity of Compounds at B-Raf Kinase
# • [Experimental method]: Use ADP-GLO™ assay kit from Promega to evaluate the inhibitory activity of compounds at B-Raf • [Instrument]: PerKinElmer's ENVISION plate reader • [Material]: Optiplate-384 well plate (PerKinElmer), kinase buffer (50 mM Hepes pH7.5, 1 mM EGTA, 2 mM DTT, 10 mM Mg^2+, 0.05% BSA), B-Raf kinase (Millipore, catalogue #14-530-K), GST-MEK1 substrate (Carna, catalogue #07-141-10), Super pure ATP (Promega), ADP-GLO™ assay kit (Promega, catalogue # V9102), DMSO (Sigma, catalogue #34869), purified water (Millipore, type: Milli-Q). • [Study conditions]: Mix B-Raf kinase (final concentration: 5 nM) and compound (DMSO final concentration: 0.25%) and preincubate at 30° C. for 20 min, then add ATP (final concentration: 6 μM) and reaction substrate (final concentration: 30 nM), React for 2 hrs at 30° C. After reaction, add ADP-GLO™ reagent, react for 40 min at room temperature, then add ADP-GLO™ detecting agent, react for 30 min at room temperature. After that, use ENVSION to measure the […]. • [Samples]: Compounds in the examples and Sorafenib (positive control) • [Data analysis]: Use CBIS data analysis software to calculate IC50 values
# pERK in MDA-MB-231 cells = assay: Inhibitory activity at pERK (In Cell Western, MDA-MB-231 cells); format: cell-based
# Summary of the method: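 pERK was measured by in-cell immunofluorescence (PI nuclear counterstain, Acumen read-out) in fixed MDA-MB-231 cells. Compound exposure lasted 2 h in DMEM with 0.1% BSA, using eight 3-fold dilutions starting at 30 μM final and 0.3% DMSO. IC50 values were derived from the resulting curves.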
# PLC-PRF-5 cells = assay: Inhibition of proliferation of PLC-PRF-5 cells (ATPlite); format: cell-based; settings: Homo sapiens
# Summary of the method: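 Antiproliferative IC50 from luminescent ATP detection (ATPlite) after 96 h compound exposure at 37 °C. Cells grown in DMEM plus 10% FBS and allowed 2 h to settle, then dosed with eight 3-fold dilutions topping at 30 μM final, DMSO 0.3%.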
# [1] = Homo sapiens, MDA-MB-231, MDA-MB-231 cells, read-out: MDA-MB-231 pERK IC50
# [2] = PLC-PRF-5, PLC-PRF-5 cells, read-out: PLC-PRF-5 cell proliferation IC50
# Sequence of KDR kinase (790-1356 AA) (P35968 790-1356): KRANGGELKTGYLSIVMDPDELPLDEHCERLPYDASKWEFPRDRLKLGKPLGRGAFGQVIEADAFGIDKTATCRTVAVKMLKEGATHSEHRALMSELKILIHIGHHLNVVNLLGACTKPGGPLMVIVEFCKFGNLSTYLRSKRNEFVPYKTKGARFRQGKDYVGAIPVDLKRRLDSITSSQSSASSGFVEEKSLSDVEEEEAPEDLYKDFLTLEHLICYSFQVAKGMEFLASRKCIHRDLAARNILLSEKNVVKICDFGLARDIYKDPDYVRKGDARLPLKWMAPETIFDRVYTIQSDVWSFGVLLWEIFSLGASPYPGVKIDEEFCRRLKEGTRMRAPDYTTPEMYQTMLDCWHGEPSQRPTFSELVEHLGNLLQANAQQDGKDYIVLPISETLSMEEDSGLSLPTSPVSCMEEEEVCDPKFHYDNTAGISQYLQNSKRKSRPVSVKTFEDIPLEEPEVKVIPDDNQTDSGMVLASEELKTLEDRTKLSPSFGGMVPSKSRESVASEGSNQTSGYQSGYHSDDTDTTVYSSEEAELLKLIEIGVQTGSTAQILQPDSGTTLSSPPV
SMILES,pIC50 (KDR kinase (790-1356 AA)),pIC50 (B-Raf kinase),pIC50 (pERK in MDA-MB-231 cells; [1]),"pIC50 (pERK in MDA-MB-231 cells; MDA-MB-231 cells, read-out: MDA-MB-231 pERK IC50)",pIC50 (PLC-PRF-5 cells; [2]),"pIC50 (pERK in MDA-MB-231 cells; Homo sapiens, MDA-MB-231, read-out: MDA-MB-231 pERK IC50)","pIC50 (PLC-PRF-5 cells; PLC-PRF-5, read-out: PLC-PRF-5 cell proliferation IC50)"
Cc1cc(NC(=O)Nc2ccc(Cl)c(C(F)(F)F)c2)cnc1Oc1ccnc(NC(=O)C2CC2)c1 [Exe. 017],7.53,7.80,7.73,,5.55,,
O=C(Nc1cnc(Oc2ccnc(NC(=O)C3CC3)c2)c(Cl)c1)Nc1ccc(Cl)c(C(F)(F)F)c1 [Exe. 019],7.65,7.74,6.76,,6.08,,
O=C(Nc1ccc(Oc2ccnc(NC(=O)C3CC3)c2)nc1)Nc1ccc(Cl)c(C(F)(F)F)c1 [Exe. 020],8.24,7.71,6.54,,5.70,,
O=C(Nc1ccc(Cl)c(C(F)(F)F)c1)Nc1ccc(Oc2ccnc(NC(=O)C3CC3)c2)cn1 [Exe. 021],8.12,7.61,7.99,,6.22,,
O=C(Nc1ccc(Oc2ccnc(NC(=O)C3CC3)c2)c(F)c1)Nc1ccc(Cl)c(C(F)(F)F)c1 [Exe. 022],8.37,8.44,,7.71,5.77,,
Cc1cc(Oc2ccnc(NC(=O)C3CC3)c2)ccc1NC(=O)Nc1ccc(Cl)c(C(F)(F)F)c1 [Exe. 023],7.98,7.82,8.16,,5.38,,
O=C(Nc1cc(F)cc(Oc2ccnc(NC(=O)C3CC3)c2)c1)Nc1ccc(Cl)c(C(F)(F)F)c1 [Exe. 024],7.47,8.29,7.71,,5.37,,
O=C(Nc1cnc(Oc2ccnc(NC(=O)C3CC3)c2)c(F)c1)Nc1ccc(Cl)c(C(F)(F)F)c1 [Exe. 025],7.83,8.04,7.15,,6.43,,
O=C(Nc1ccc(Cl)c(C(F)(F)F)c1)Nc1ccc(Oc2ccnc(NC(=O)C3CC3)c2)cc1F [Exe. 029],8.41,8.14,8.00,,6.10,,
CN1CCN(Cc2cc(NC(=O)Nc3ccc(Oc4ccnc(NC(=O)C5CC5)c4)cc3)cc(C(F)(F)F)c2)CC1 [Exe. 064],7.92,8.34,,,6.21,,
Cc1cc(Oc2ccnc(NC(=O)C3CC3)c2)ccc1NC(=O)Nc1cc(C(C)(F)F)ccc1F [Exe. 198],8.08,,8.24,,6.13,,
Cc1cc(Oc2ccnc(NC(=O)C3CC3)c2)ccc1NC(=O)Nc1ccc(F)c(C(C)(F)F)c1 [Exe. 200],8.00,,8.26,,5.50,,
O=C(Nc1cccc(C(F)(F)F)c1)Nc1ccc(Nc2ccnc(NC(=O)C3CC3)c2)cc1F [Exe. 204],8.03,,7.14,,5.73,,
N#Cc1ccc(NC(=O)Nc2ccc(Oc3ccnc(NC(=O)C4CC4)c3)cc2F)cc1C(F)(F)F [Exe. 206],7.84,,,,,8.09,5.78
O=C(Nc1cncc(C(F)(F)F)c1)Nc1ccc(Oc2ccnc(NC(=O)C3CC3)c2)cc1F [Exe. 213],7.97,,8.14,,7.10,,
Cc1ccc(Oc2ccnc(NC(=O)C3CC3)c2)cc1NC(=O)Nc1ccc(F)c(C(F)(F)F)c1 [Exe. 223],8.16,,8.05,,5.46,,
O=C(Nc1cc(-c2cn[nH]c2)cc(C(F)(F)F)c1)Nc1ccc(Oc2ccnc(NC(=O)C3CC3)c2)c(F)c1 [Exe. 238],7.81,,7.24,,5.65,,
O=C(Nc1cc(NC(=O)[C@@H]2CCCN2)cc(C(F)(F)F)c1)Nc1ccc(Oc2ccnc(NC(=O)C3CC3)c2)c(F)c1 [Exe. 240],7.72,,7.57,,5.98,,
CN1CCC(C(=O)Nc2cc(NC(=O)Nc3ccc(Oc4ccnc(NC(=O)C5CC5)c4)c(F)c3)cc(C(F)(F)F)c2)CC1 [Exe. 242],7.78,,6.43,,5.33,,

# Now from value to compound, other results behind:
pIC50 (KDR kinase (790-1356 AA)),pIC50 (B-Raf kinase),pIC50 (pERK in MDA-MB-231 cells; [1]),"pIC50 (pERK in MDA-MB-231 cells; MDA-MB-231 cells, read-out: MDA-MB-231 pERK IC50)",SMILES,pIC50 (PLC-PRF-5 cells; [2]),"pIC50 (pERK in MDA-MB-231 cells; Homo sapiens, MDA-MB-231, read-out: MDA-MB-231 pERK IC50)","pIC50 (PLC-PRF-5 cells; PLC-PRF-5, read-out: PLC-PRF-5 cell proliferation IC50)"
7.96,7.41,7.51,,"Cc1cc(Oc2cc(NC(=O)C3CC3)ncn2)ccc1NC(=O)Nc1ccc(Cl)c(C(F)(F)F)c1 [Exe. 001, N-[6-[4-[[4-chloro-3-(trifluoromethyl)phenyl]carbamoylamino]-3-methyl-phenoxy]pyrimidin-4-yl]cyclopropanecarboxamide]",5.16,,
8.24,7.61,7.34,,O=C(Nc1ccc(Oc2cc(NC(=O)C3CC3)ncn2)cc1)Nc1ccc(Cl)c(C(F)(F)F)c1 [Exe. 007],5.14,,
8.24,7.60,6.91,,O=C(Nc1ccc(Oc2cc(NC(=O)C3CC3)ncn2)c(F)c1)Nc1ccc(Cl)c(C(F)(F)F)c1 [Exe. 008],5.34,,
8.05,7.59,7.69,,O=C(Nc1ccc(Cl)c(C(F)(F)F)c1)Nc1ccc(Oc2cc(NC(=O)C3CC3)ncn2)cc1F [Exe. 009],5.44,,
7.86,7.01,7.37,,Cc1cc(NC(=O)Nc2ccc(Cl)c(C(F)(F)F)c2)ccc1Oc1cc(NC(=O)C2CC2)ncn1 [Exe. 010],5.36,,
7.90,7.68,6.41,,CC1(C(=O)Nc2cc(Oc3ccc(NC(=O)Nc4ccc(Cl)c(C(F)(F)F)c4)cc3F)ccn2)CC1 [Exe. 028],5.60,,
8.24,,7.85,,Cc1cc(Oc2ccnc(NC(=O)C3CC3)c2)ccc1NC(=O)Nc1cc(F)cc(C(C)(F)F)c1 [Exe. 197],5.48,,
7.94,,6.49,,O=C(Nc1cccc(C(F)(F)F)c1)Nc1cnc(Oc2ccnc(NC(=O)C3CC3)c2)c(F)c1 [Exe. 201],6.62,,
7.90,,6.61,,CC(F)(F)c1ccc(F)c(NC(=O)Nc2cnc(Oc3ccnc(NC(=O)C4CC4)c3)c(F)c2)c1 [Exe. 202],7.18,,
7.79,,7.21,,CN(c1ccnc(NC(=O)C2CC2)c1)c1ccc(NC(=O)Nc2cccc(C(F)(F)F)c2)c(F)c1 [Exe. 203],6.27,,
7.99,,8.08,,Cc1ccc(NC(=O)Nc2ccc(Oc3ccnc(NC(=O)C4CC4)c3)cc2F)cc1C(F)(F)F [Exe. 207],7.15,,
8.03,,7.94,,O=C(Nc1ccc(Oc2ccnc(NC(=O)C3CC3)c2)cc1F)Nc1cc(OC(F)(F)F)ccc1F [Exe. 214],6.74,,
8.06,,7.76,,O=C(Nc1ccc(F)c(C2CC2)c1)Nc1ccc(Oc2ccnc(NC(=O)C3CC3)c2)cc1F [Exe. 222],6.31,,
8.04,,7.96,,Cc1ccc(Oc2ccnc(NC(=O)C3CC3)c2)cc1NC(=O)Nc1cccc(C(F)(F)F)c1 [Exe. 226],5.45,,
7.83,,7.92,,Cc1ccc(Oc2ccnc(NC(=O)C3CC3)c2)cc1NC(=O)Nc1ccc(Cl)c(C(C)(F)F)c1 [Exe. 228],5.48,,
7.87,,8.16,,Cc1ccc(Oc2ccnc(NC(=O)C3CC3)c2)cc1NC(=O)Nc1ccc(F)c(C(C)(F)F)c1 [Exe. 229],5.50,,
8.09,,7.73,,Cc1cc(NC(=O)Nc2cc(F)cc(C(C)(F)F)c2)ccc1Oc1ccnc(NC(=O)C2CC2)c1 [Exe. 233],6.25,,
